The values below come from US7968588B2, “Injectable formulation of antibiotic and solution for intravenous administration thereof” (eRigen Pharmaceuticals, Inc., priority 2006, dated 2011).

Starred links: 1 amine or outer side, 2 acyl side, 3 side chain; linkers in the order of their positions; H or OH if unused. Positions of bridges follow the written chain, without caps; N, C: chain ends. Non-standard residues stand in square brackets, D forms with d. Residues, ends and D or L forms follow the SMILES beside them. ξ: configuration not given here. ξAsn(3ξ-OH) = NC(=O)C(O)C(N)C(=O)O; X1 = CC(C)CCCC(CC(=O)[*:1])O[*:2]; NMeF = CN[CH](Cc1ccccc1)C(=O)O; NMeV = CN[CH](C(=O)O)C(C)C; Orn = NCCC[CH](N)C(=O)O

The assay concerns MRSA (strain ATCC 33591). Description: In vivo efficacy study in a MRSA infection model in mice. More on the design: species or system Staphylococcus aureus. The note with it: for survival (%) at dosage 1.0 mg/kg: single i.v. dose 1.0 mg/kg one hour after i.v. MRSA inoculation; for survival (%) at dosage 3.0 mg/kg: single i.v. dose 3.0 mg/kg one hour after i.v. MRSA inoculation; for 50% effective dose: single i.v. dose, calculated from the survival rate at each dosage. On the procedure:
Efficacy was compared between the present solution of WAP-8294A2 prepared in the manner shown in Example 4 and vancomycin for injection (5% dextrose solution) using an MRSA infection model in mice.
The 50% effective dose (mg/kg) was calculated from the survival rate at each dosage.

As to `CC(C)CCCC1CC(=O)NC(CO)C(=O)NC(C(O)C(N)=O)C(=O)NC(CO)C(=O)NCC(=O)N(C)C(Cc2ccccc2)C(=O)NC(CC(C)C)C(=O)NC(CCCN)C(=O)NC(CCC(=O)O)C(=O)NC(CC(N)=O)C(=O)NC(Cc2c[nH]c3ccccc23)C(=O)NC(CCCN)C(=O)N(C)C(C(C)C)C(=O)O1` (centres unmarked) [WAP-8294A2] (S[ξAsn(3ξ-OH)]SG[NMeF]L[Orn]ENW[Orn][NMeV]; linker N-C via X1; configuration not given here), the 50% effective dose is given as 0.06 mg/kg. Besides, the “survival (%) at dosage 0.01 mg/kg” value (single i.v. dose 0.01 mg/kg one hour after i.v. MRSA inoculation, observed for a week) was 10%. Moreover, for the setting “single i.v. dose 0.03 mg/kg one hour after i.v. MRSA inoculation, observed for a week”, the “survival (%) at dosage 0.03 mg/kg” value is 30%. Moreover, the “survival (%) at dosage 0.1 mg/kg” value (single i.v. dose 0.1 mg/kg one hour after i.v. MRSA inoculation, observed for a week) is 60%. Further, under “single i.v. dose 0.3 mg/kg one hour after i.v. MRSA inoculation, observed for a week”, the “survival (%) at dosage 0.3 mg/kg” value is recorded as 100%. In addition, where the note is “observed for a week”, the “survival (%) at dosage 1.0 mg/kg” value is recorded as 100% and the “survival (%) at dosage 3.0 mg/kg” value was 100%.

Turning to `CN[C@H](CC(C)C)C(=O)N[C@H]1C(=O)N[C@@H](CC(N)=O)C(=O)N[C@H]2C(=O)N[C@H]3C(=O)N[C@H](C(=O)N[C@H](C(=O)O)c4cc(O)cc(O)c4-c4cc3ccc4O)[C@H](O)c3ccc(c(Cl)c3)Oc3cc2cc(c3O[C@@H]2O[C@H](CO)[C@@H](O)[C@H](O)[C@H]2O[C@H]2C[C@](C)(N)[C@H](O)[C@H](C)O2)Oc2ccc(cc2Cl)[C@H]1O` [vancomycin, reference compound], the 50% effective dose was 3.12 mg/kg. For the same molecule, for the setting “observed for a week”, the “survival (%) at dosage 1.0 mg/kg” value is reported as 0% and the “survival (%) at dosage 3.0 mg/kg” value is given as 30%. In addition, the “survival (%) at dosage 10 mg/kg” value (single i.v. dose 10 mg/kg one hour after i.v. MRSA inoculation, observed for a week) stood at 100%.
